Measurements published in patent US20230322767A1, “ARYL SUBSTITUTED PYRROLO-PYRIDINONES AND THERAPEUTIC USES THEREOF” (Bayer Aktiengesellschaft, priority 2020, published 2023).
Like-named read-outs stand apart in the source and are kept apart here.

Columns and labels:
Assay type in all cases: biochemical
CSNK1A1 = CSNK1A1 (Homo sapiens (Human), UniProt P48729); assay: CSNK1A1 Assay 2 (ADP-Glo, 1 μM ATP); conditions: median, read-out: CSNK1A1 Assay 2 IC50 [mol/l] (median)
In short: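 Enzyme (~0.0375 ng/μL) preincubated 15 min at 22° C with compound in HEPES pH 7.5 buffer, then reacted with 1 μM ATP and biotin-Ahx-KRRRAL-pS-VASLPGL peptide. ADP product measured by ADP-Glo luminescence after 1 h ATP depletion and 1 h detection at 22° C.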

CSNK1D = CSNK1D (Homo sapiens (Human), UniProt P48730); assay: CSNK1D Assay (ADP-Glo, 1 μM ATP); conditions: median, read-out: CSNK1D IC50 [mol/l] (median)
In short: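 Enzyme preincubated with compound 15 min at 22° C in 50 mM HEPES pH 7.5 buffer with 10 mM MgCl2, 1 mM DTT; kinase reaction run at 1 μM ATP with biotinylated peptide substrate. ADP formed was detected by ADP-Glo luminescence as the measure of activity.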

[1] = biological target: wild-type Epidermal Growth Factor Receptor (EGFR) (Homo sapiens (Human), UniProt P00533); assay: WT-EGFR Kinase Assay (TR-FRET, 2 mM ATP)
In short: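 GST-tagged human EGFR (R669–A1210, Sf9-expressed) preincubated 15 min at 22° C with compound in pH 7.0 Hepes/MgCl2 buffer, then reacted at 2 mM ATP with a biotinylated peptide substrate. Phosphorylation detected by TR-FRET (streptavidin-XL665, Tb-cryptate anti-phosphotyrosine) as the 665/620 nm emission ratio.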

[2] = read-out: EGFR Wildtyp 2 mM ATP IC50 [mol/l] (median), median or individual measurements
[3] = EGFR Wildtyp 2 mM ATP IC50 [mol/l] (median), median or individual measurements

Sequence of CSNK1D (P48730 whole entry): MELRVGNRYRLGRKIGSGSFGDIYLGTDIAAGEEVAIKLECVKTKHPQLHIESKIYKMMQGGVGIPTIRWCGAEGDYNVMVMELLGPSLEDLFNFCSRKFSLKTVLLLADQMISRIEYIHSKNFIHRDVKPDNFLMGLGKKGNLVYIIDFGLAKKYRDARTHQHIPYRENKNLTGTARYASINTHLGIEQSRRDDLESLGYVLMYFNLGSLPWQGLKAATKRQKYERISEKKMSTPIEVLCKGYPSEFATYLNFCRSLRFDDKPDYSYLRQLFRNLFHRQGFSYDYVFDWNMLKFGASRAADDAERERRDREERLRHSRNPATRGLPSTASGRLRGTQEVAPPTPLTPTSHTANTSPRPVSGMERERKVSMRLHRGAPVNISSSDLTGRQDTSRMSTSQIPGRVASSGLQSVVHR
Sequence of wild-type Epidermal Growth Factor Receptor (EGFR) (P00533 669-1210): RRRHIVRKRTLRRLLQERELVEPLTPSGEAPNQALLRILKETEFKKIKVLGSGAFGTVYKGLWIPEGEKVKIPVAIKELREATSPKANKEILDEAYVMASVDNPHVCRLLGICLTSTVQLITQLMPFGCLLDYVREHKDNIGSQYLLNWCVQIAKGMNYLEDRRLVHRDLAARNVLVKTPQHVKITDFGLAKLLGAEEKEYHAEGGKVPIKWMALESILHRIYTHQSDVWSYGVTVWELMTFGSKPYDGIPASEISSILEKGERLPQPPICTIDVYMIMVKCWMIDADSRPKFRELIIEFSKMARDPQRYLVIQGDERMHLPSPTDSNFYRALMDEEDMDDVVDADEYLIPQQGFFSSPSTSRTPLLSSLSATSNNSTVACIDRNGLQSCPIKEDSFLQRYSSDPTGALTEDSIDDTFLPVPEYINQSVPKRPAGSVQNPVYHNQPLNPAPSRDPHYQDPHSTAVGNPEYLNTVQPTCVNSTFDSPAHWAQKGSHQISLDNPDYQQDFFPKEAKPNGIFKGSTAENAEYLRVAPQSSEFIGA
Sequence of CSNK1A1 (P48729 whole entry): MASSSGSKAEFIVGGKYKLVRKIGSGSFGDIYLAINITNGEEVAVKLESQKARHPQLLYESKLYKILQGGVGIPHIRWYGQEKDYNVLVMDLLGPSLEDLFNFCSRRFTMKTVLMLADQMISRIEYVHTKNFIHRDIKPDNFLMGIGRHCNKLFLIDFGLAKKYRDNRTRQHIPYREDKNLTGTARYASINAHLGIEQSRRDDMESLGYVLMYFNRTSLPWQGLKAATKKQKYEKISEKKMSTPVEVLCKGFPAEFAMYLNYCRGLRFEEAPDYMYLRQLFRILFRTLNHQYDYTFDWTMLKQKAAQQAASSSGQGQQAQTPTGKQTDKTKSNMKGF

Row | SMILES | IC50 (CSNK1A1) | IC50 (CSNK1D) | IC50 [1, 2] | IC50 [1, 3]
1 | CC(C(=O)Nc1cc(-c2[nH]c3c(c2-c2cccnc2)C(=O)NC(C)(C)C3)ccn1)c1ccc(F)cc1 (single isomer, unassigned) [Example 99, N-{4-[6,6-dimethyl-4-oxo-3-(pyridin-3-yl)-4,5,6,7-tetrahydro-1H-pyrrolo[3,2-c]pyridin-2-yl]pyridin-2-yl}-2-(4-fluorophenyl)propanamide] | 4.3 nM | 5.5 nM | > 20000 nM | 
2 | CC(C(=O)Nc1cc(-c2[nH]c3ccn(C)c(=O)c3c2-c2ccccc2)ccn1)c1ccc(F)cc1 (single isomer, unassigned) [Example 104, 2-(4-fluorophenyl)-N-[4-(5-methyl-4-oxo-3-phenyl-4,5-dihydro-1H-pyrrolo[3,2-c]pyridin-2-yl)pyridin-2-yl]propanamide] | 7 nM | 5.1 nM |  | > 20000 nM
3 | CC(C(=O)Nc1cc(-c2[nH]c3ccn(C)c(=O)c3c2-c2ccccc2)ccn1)c1ccc(F)cc1 (single isomer, unassigned) [Example 105, 2-(4-fluorophenyl)-N-[4-(5-methyl-4-oxo-3-phenyl-4,5-dihydro-1H-pyrrolo[3,2-c]pyridin-2-yl)pyridin-2-yl]propanamide] | 0.71 nM | 1.5 nM |  | 8220 nM
4 | Cn1cc(CC(F)F)c2[nH]c(-c3ccnc(NC(=O)C(CC(F)F)c4ccc(F)cc4)c3)c(-c3ccccc3)c2c1=O (single isomer, unassigned) [Example 148, N-{4-[7-(2,2-difluoroethyl)-5-methyl-4-oxo-3-phenyl-4,5-dihydro-1H-pyrrolo[3,2-c]pyridin-2-yl]pyridin-2-yl}-4,4-difluoro-2-(4-fluorophenyl)butanamide] | 12 nM | 6.8 nM |  | 8750 nM
5 | Cn1cc(CC(F)F)c2[nH]c(-c3ccnc(NC(=O)C(CC(F)F)c4ccc(F)cc4)c3)c(-c3ccccc3)c2c1=O (single isomer, unassigned) [Example 149, N-{4-[7-(2,2-difluoroethyl)-5-methyl-4-oxo-3-phenyl-4,5-dihydro-1H-pyrrolo[3,2-c]pyridin-2-yl]pyridin-2-yl}-4,4-difluoro-2-(4-fluorophenyl)butanamide] | 3.7 nM | 3.8 nM |  | > 20000 nM
6 | CC(C(=O)Nc1cc(-c2[nH]c3c(c2-c2ccccc2)C(=O)N(C)CC3)ccn1)c1ccncc1 (single isomer, unassigned) [Example 155, N-[4-(5-methyl-4-oxo-3-phenyl-4,5,6,7-tetrahydro-1H-pyrrolo[3,2-c]pyridin-2-yl)pyridin-2-yl]-2-(pyridin-4-yl)propanamide] | 1.3 nM | 2 nM |  | > 20000 nM
7 | O=C(Nc1cc(-c2[nH]c3ccn(C4CC4)c(=O)c3c2-c2ccccc2)ccn1)C(CC(F)F)c1ccc(F)cc1 (single isomer, unassigned) [Example 157, (2R or S)—N-[4-(5-cyclopropyl-4-oxo-3-phenyl-4,5-dihydro-1H-pyrrolo[3,2-c]pyridin-2-yl)pyridin-2-yl]-4,4-difluoro-2-(4-fluorophenyl)butanamide] | 2 nM | 2.3 nM |  | > 20000 nM
8 | O=C(Nc1cc(-c2[nH]c3ccn(C4CC4)c(=O)c3c2-c2ccccc2)ccn1)C(CC(F)F)c1ccc(F)cc1 (single isomer, unassigned) [Example 158, (2R or S)—N-[4-(5-cyclopropyl-4-oxo-3-phenyl-4,5-dihydro-1H-pyrrolo[3,2-c]pyridin-2-yl)pyridin-2-yl]-4,4-difluoro-2-(4-fluorophenyl)butanamide] | 3.2 nM | 5.1 nM | > 20000 nM | 
9 | CC(C(=O)Nc1cc(-c2[nH]c3ccn(C)c(=O)c3c2-c2ccc(F)cc2)ccn1)c1ccc(F)cc1 (single isomer, unassigned; (+)) [Example 102, (+)-2-(4-fluorophenyl)-N-{4-[3-(4-fluorophenyl)-5-methyl-4-oxo-4,5-dihydro-1H-pyrrolo[3,2-c]pyridin-2-yl]pyridin-2-yl}propanamide] | 1 nM | 2 nM |  | 875 nM
10 | Cn1ccc2[nH]c(-c3ccnc(NC(=O)C(CC(F)F)c4ccc(F)cc4)c3)c(-c3ccc(F)cc3)c2c1=O (single isomer, unassigned; (+)) [Example 109, (+)-4,4-difluoro-2-(4-fluorophenyl)-N-{4-[3-(4-fluorophenyl)-5-methyl-4-oxo-4,5-dihydro-1H-pyrrolo[3,2-c]pyridin-2-yl]pyridin-2-yl}butanamide] | 2.1 nM | 3.7 nM |  | 3850 nM
11 | O=C(Nc1cc(-c2[nH]c3ccn(C4CC4)c(=O)c3c2-c2ccc(F)cc2)ccn1)C(CC(F)F)c1ccc(F)cc1 (single isomer, unassigned; (+)) [Example 136, (+)-N-{4-[5-cyclopropyl-3-(4-fluorophenyl)-4-oxo-4,5-dihydro-1H-pyrrolo[3,2-c]pyridin-2-yl]pyridin-2-yl}-4,4-difluoro-2-(4-fluorophenyl)butanamide] | 3.1 nM | 2.1 nM | > 20000 nM | 
12 | CN1CC(C)(C)c2[nH]c(-c3ccnc(NC(=O)C(CC(F)F)c4ccc(F)cc4)c3)c(-c3ccccc3)c2C1=O (single isomer, unassigned; (+)) [Example 152, (+)-4,4-difluoro-2-(4-fluorophenyl)-N-[4-(5,7,7-trimethyl-4-oxo-3-phenyl-4,5,6,7-tetrahydro-1H-pyrrolo[3,2-c]pyridin-2-yl)pyridin-2-yl]butanamide] | 4.3 nM | 4.5 nM | > 20000 nM | 
13 | CC(C(=O)Nc1cc(-c2[nH]c3ccn(C)c(=O)c3c2-c2ccc(F)cc2)ccn1)c1ccc(F)cc1 (single isomer, unassigned; (-)) [Example 101, (−)-2-(4-fluorophenyl)-N-{4-[3-(4-fluorophenyl)-5-methyl-4-oxo-4,5-dihydro-1H-pyrrolo[3,2-c]pyridin-2-yl]pyridin-2-yl}propanamide] | 12 nM | 5.6 nM |  | 32.4 nM
14 | Cn1ccc2[nH]c(-c3ccnc(NC(=O)C(CC(F)F)c4ccc(F)cc4)c3)c(-c3ccc(F)cc3)c2c1=O (single isomer, unassigned; (-)) [Example 108, (−)-4,4-difluoro-2-(4-fluorophenyl)-N-{4-[3-(4-fluorophenyl)-5-methyl-4-oxo-4,5-dihydro-1H-pyrrolo[3,2-c]pyridin-2-yl]pyridin-2-yl}butanamide] | 15 nM | 9.4 nM |  | 663 nM
15 | O=C(Nc1cc(-c2[nH]c3ccn(C4CC4)c(=O)c3c2-c2ccc(F)cc2)ccn1)C(CC(F)F)c1ccc(F)cc1 (single isomer, unassigned; (-)) [Example 135, (−)-N-{4-[5-cyclopropyl-3-(4-fluorophenyl)-4-oxo-4,5-dihydro-1H-pyrrolo[3,2-c]pyridin-2-yl]pyridin-2-yl}-4,4-difluoro-2-(4-fluorophenyl)butanamide] | 7.8 nM | 5.4 nM |  | > 20000 nM
16 | CN1CC(C)(C)c2[nH]c(-c3ccnc(NC(=O)C(CC(F)F)c4ccc(F)cc4)c3)c(-c3ccccc3)c2C1=O (single isomer, unassigned; (-)) [Example 151, (−)-4,4-difluoro-2-(4-fluorophenyl)-N-[4-(5,7,7-trimethyl-4-oxo-3-phenyl-4,5,6,7-tetrahydro-1H-pyrrolo[3,2-c]pyridin-2-yl)pyridin-2-yl]butanamide] | 17 nM | 19 nM |  | > 20000 nM
